Reference: US9857359B2, “Methods for determining drug efficacy using cereblon-associated proteins” (CELGENE CORPORATION, priority 2012, dated 2018)

Legend:
Aiolos [1] = experiment: Aiolos expression in CD20+ B cells and CD3+ T cells, percentage of DMSO control (FACS); assay type: cell-based; settings: n=3
Method: The Fix buffer I was warmed up to 37° C. in an incubator or water bath prior to use. The Perm Buffer III was chilled in a −20° C. freezer prior to use. The cells were collected at the end of treatment with testing compounds. One volume of the pre-warmed Fix Buffer I was mixed with one volume of cell suspension. If the volume of the cell suspension is greater than 100 μL, the cells were spun and resuspended in 100 μL medium or PBS. The buffer and the cell suspension were mixed well and incubated in a 37° C. water bath for 10 min. The cells were spun down at 250×g for 10 min and the supernatant was aspirated. The cells were washed once with BD Stain Buffer. The pellet was spun and the supernatant was removed. The cells were vortexed to be loosened, and permeabilized by slowly adding cold Perm Buffer III while vortexing or mixing. Subsequently, the cells were incubated on ice for 30 min. The cells were then spun down and washed twice with Stain Buffer. The supernatant was spun and aspirated. The cells were resuspended in a small volume of Stain buffer (50 or 100 μL containing from 200,000 to 1 million cells). Anti-IKFZ3 antibody was added to the cell suspension at 1:1000 dilution and incubated for 45 min at 4° C. The cells were then spun down and washed once with stain buffer. Secondary antibody was added to the cells at 1:5000 dilution and incubated at room temperature for 20 min in the dark. […]

[2] = tested on: interferon regulatory factor 4 (IRF4); experiment: IRF4 expression in DLBCL cells; assay type: cell-based; settings: ABC-DLBCL cells
Ikaros = Ikaros (Homo sapiens, UniProt Q13422); experiment: Ikaros immunohistochemistry in H929 xenograft tumors; assay type: in vivo, SCID mice; set-up: formalin fixed paraffin-embedded xenograft tumour sections were stained with antibodies; endogenous in cells; host or cells: NCI-H929 tumour xenograft in female SCID mice; settings: 7 days oral daily
Method: Female SCID mice (Fox Chase SCID®, C.B-17/Icr-Prkdcscid, Charles River) (Wilmington, Mass.) were injected subcutaneously in the right flank with total of 1×10^7 NCI-H929 tumor cells in 50% matrigel (BD Biosciences). […] Mice were monitored daily for health status as well as tumor growth. Tumors of all mice were measured with a digital caliper, and volumes were calculated with the following formula: tumor volume (mm^3)=length (mm)×width (mm)^2.
Four micron thick formalin fixed paraffin-embedded xenograft tumour sections were stained with antibodies to CRBN (rabbit monoclonoal Celgene CRBN65), Aiolos (rabbit polyclonal antibody; Santa Cruz, Dallas, Tex.), and Ikaros (rabbit polyclonal antibody; Millipore, Billerica, Mass.) using the Bond-Max automated slide strainer (Leica Microsystems, Buffalo Grove, Ill.) and the associated Bond Polymer Refine Detection Kit. Antigen retrieval was performed with Epitope Retrieval 2 (pH 9.0) for 20 min at 100° C. on the instrument. The slides were blocked for endogenous peroxidase activity with Peroxide Block for 5 min at room temperature. […] IHC staining intensity was scored on a scale of 0-3 (0=negative, 1=weak, 2=intermediate, 3=strong). Range of cells with specific immunoreactivity (<1%=0, 1-25%=1, 26-75%=2, and >75%=3) were recorded. Total score of the immunoreactivity intensity was calculated as product of intensity and range of positive cells.

Aiolos [3] = experiment: Aiolos protein expression in T cells with or without proteasome inhibitor; assay type: cell-based
Method: U266 cells were obtained from ATCC (American Type Culture Collection, Manassas, Va., USA). DF15 cells were obtained from John Shaughnessy (University of Arkansas, Little Rock, Ark., USA). CD19+ B cells were purchased from HemaCare BioResearch Products (Van Nuys, Calif.). Cells were grown in RPMI-1640 medium (Cellgro, Manassas, Va.) containing 10% (V/V) heat-inactivated fetal bovine serum (Gibco, Grand Island, N.Y., USA) supplemented with 2 mM glutamine. […] Primary T cells were isolated from human leukocytes (Blood Center of New Jersey, East Orange, N.J.) by centrifugation through FICOLL® centrifugation medium following the ROSETETTESEP™ protocol (Stem Cell Technologies, Vancouver, Canada). […] Dexamethasone (Sigma, St. Louis, Mo.), melphalan (Sigma, St. Louis, Mo.) and bortezomib (Selleck Chemicals, Houston, Tex.) treated was for 6 hours. The final DMSO concentration is 0.1%. Cells were pre-treated with 10 μM MG-132 (Calbiochem Biochemicals, Billerica, Mass.) for 30 minutes prior to drug addition. Cells were harvested, washed in PBS and cell lysates separated on SDS-PAGE gels (Bio-Rad, Hercules, Calif.). […] The blots were analyzed on ODESSEY® imager (LI-COR Biosciences, Lincoln, Nebr.).

Aiolos [4] = experiment: Endogenous Aiolos in breast cancer cells, western blot; assay type: cell-based
Method: Cell lines (AU565, ZR 75-1, BT-474, EFM-192A, HCC1954, HCC70, MB436 and BT549) were maintained using standard cell culture techniques. For endogenous Aiolos expression, cells were seeded in a 6 well plate at 0.5×10^6 cells per well in a 3 mL volume of media. Cells were allowed to adhere to the plate overnight. Cells were exposed to 0, 1, and 10 μM Compound A for the specified amounts of time.
Cells were harvested and lysed in Pierce #89900 Ripa buffer containing 2× protease inhibitor cocktail from Pierce #78442. The lysate was applied to a QiaShredder to remove DNA. Total protein yield was measured using BioRad DC protein determination kit (Cat#500-0112). Lysates were stored at −80° C. until use. Samples were applied to BioRad Criterion PreCast gels, 10% (Bio-Rad#345-0010) and transferred to Bio-Rad Nitrocellulose/Filter Paper Sandwiches (#162-0233) for western blot analysis.

Ikaros, sequence (Q13422 whole entry): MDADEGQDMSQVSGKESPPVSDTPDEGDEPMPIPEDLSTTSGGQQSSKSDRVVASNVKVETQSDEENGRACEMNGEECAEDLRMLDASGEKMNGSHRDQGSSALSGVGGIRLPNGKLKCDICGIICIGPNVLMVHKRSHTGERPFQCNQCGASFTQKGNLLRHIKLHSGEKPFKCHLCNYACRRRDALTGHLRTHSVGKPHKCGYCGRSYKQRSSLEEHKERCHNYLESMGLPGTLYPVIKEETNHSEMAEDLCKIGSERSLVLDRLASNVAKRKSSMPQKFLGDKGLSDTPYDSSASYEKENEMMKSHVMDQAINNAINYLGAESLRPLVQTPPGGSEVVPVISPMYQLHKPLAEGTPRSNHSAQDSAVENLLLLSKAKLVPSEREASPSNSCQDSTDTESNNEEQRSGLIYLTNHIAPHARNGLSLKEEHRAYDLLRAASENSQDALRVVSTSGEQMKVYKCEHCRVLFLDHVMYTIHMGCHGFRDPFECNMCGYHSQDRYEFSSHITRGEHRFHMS

**Q.** O=C1CC[C@H](N2Cc3c(OCc4ccc(CN5CCOCC5)cc4)cccc3C2=O)C(=O)N1 [Compound B, 3-(4-((4-(morpholinomethyl)benzyl)oxy)-1-oxoisoindolin-2-yl)piperidine-2,6-dione] was tested. Which “Aiolos expression in CD3+ T cells” value (Aiolos [1]) did it give?
**A.** significantly inhibited Aiolos expression

**Q.** And the “Aiolos expression in CD20+ B cells” value (Aiolos [1])?
**A.** significantly inhibited Aiolos expression

**Q.** Which results are given for Nc1cccc2c1CN(C1CCC(=O)NC1=O)C2=O (stereo not drawn) [lenalidomide]?
**A.** IRF4 level associated with tumoricidal effect [2]: downregulation of interferon regulatory factor 4 (IRF4); Ikaros in H929 MM cells in mice by immunohistochemistry (Ikaros): induces Aiolos and Ikaros degradation

**Q.** For Cc1nc2cccc(N)c2c(=O)n1C1CCC(=O)NC1=O (stereo not drawn) [Compound A, 3-(5-amino-2-methyl-4-oxo-4H-quinazolin-3-yl)-piperidine-2,6-dione], which Aiolos expression (Aiolos [3]; absence of a proteasome inhibitor) is on record?
**A.** inhibit the expression of Aiolos

**Q.** What about the Aiolos expression (Aiolos [3]; proteasome inhibitor present) of the same compound?
**A.** little inhibition was observed

**Q.** What about the “Endogenous Aiolos” value (Aiolos [4]; Her2+ cells (AU565, BT-474, EFM-192A and HCC1954)) of the same compound?
**A.** inhibited

**Q.** And the “Levels of endogenous Aiolos (band around 60 kD)” value (Aiolos [4]; ZR 75-1 and AU565 cell lines, 24 hours after treatment)?
**A.** reduced the levels of Aiolos

**Q.** What about the “Endogenous Aiolos” value (Aiolos [4]; triple negative cells (HCC70, MB436 and BT549)) of the same compound?
**A.** not in triple negative cells
